Experimental findings from ChEMBL document CHEMBL1158323, “Biomimetic cyclization of cnicin to malacitanolide, a cytotoxic eudesmanolide from Centaurea malacitana” (J Nat Prod, 1997) are described below.

pIC50: −log10 of the molar value. Values after ≈ are worked out from the molar mass of the structure shown.

Common to all, as to type: functional, cell-based
The test system of one experiment is HT-29. As to the kind of experiment: Cytotoxicity against human HT29 cells.
Experiment [1] in a line: Cytotoxicity against mouse SCHABEL cells.
The subject of a further experiment is SK-MEL-28. As to the kind of experiment: Cytotoxicity against human SK-MEL-28 cells.
For a further experiment, the system named is P388. Description: Cytotoxicity against mouse P388 cells.
The next experiment has as its system A549. Description: Cytotoxicity against human A549 cells.

Turning to `C=C1C(=O)O[C@@H]2/C=C(\CO)CC/C=C(\C)C[C@H](OC(=O)/C(C)=C\COC(C)=O)[C@@H]12`, the half-inhibitory concentration (IC50) in the experiment on HT-29 was 5 µg/mL; in experiment [1], 2.5 µg/mL (≈ 6.18 µM); in the experiment with SK-MEL-28, 5 µg/mL (≈ 12.4 µM); in the experiment on P388, 2.5 µg/mL; in the experiment with A549, 5 µg/mL.

As to `C=C1C(=O)O[C@@H]2/C=C(\CO)CC/C=C(\C)C[C@H](OC(=O)C(=C)[C@H](O)CO)[C@@H]12` [CNICIN], the pIC50 in the experiment on HT-29 was 4.88; in the experiment with P388, 5.18; with A549 it was 4.88.

In the case of `C=C1C(=O)O[C@H]2[C@H]1[C@@H](OC(=O)C(=C)[C@@H](O)CO)C[C@]1(C)[C@@H]2[C@@H](C=O)CC[C@H]1O` [MALACITANOLIDE], the IC50 came to 0.12 µg/mL in the experiment on HT-29; 0.12 µg/mL (≈ 0.304 µM) in experiment [1]; 0.12 µg/mL (≈ 0.304 µM) in the experiment with SK-MEL-28; 0.12 µg/mL in the experiment with P388; 0.12 µg/mL in the experiment on A549.
